# Experimental data reported in patent US20220256852A1, “NOVEL CRYSTALLINE FORM OF PYROXASULFONE, METHODS FOR ITS PREPARATION AND USE OF THE SAME” (ROTAM AGROCHEM INTERNATIONAL COMPANY LIMITED, priority 2021, published 2022).
# Experiments:
# [1] = Dispersibility test of water dispersible granules (WG); format: physicochemical; settings: summary of Table 4
# Method: 0.3077 g of calcium carbonate and 0.092 g of magnesium oxide were dissolved in a small amount of diluted hydrochloric acid, then heated and boiled on a sand bath to remove hydrochloric acid. Distilled water was added to the remaining solution to make 10 liters in total. Subsequently, 100 ml of the obtained solution was put into a 100 ml stoppered measuring cylinder, and kept at 20° C. in a temperature-controlled room. 100 mg samples of S4 to S6 were put into the measuring cylinder, and left to stand for 30 seconds. The measuring cylinder was then turned upside down repeatedly at a rate of once a second, whereupon the turning-down frequency (number of turns) needed for disintegrating the whole water-dispersible material was counted.
# [2] = format: physicochemical
# Method: Samples (S1, S2 and S3) were stored at 54° C. for 1 month, 3 months and 6 months. The procedures were followed according to CIPAC MT 46.3. The concentration of Pyroxasulfone was measured at the end of each storage time by HPLC. The aggregation was measured by observation. The original concentration of Pyroxasulfone in each formulation was 40%.
compound,measurement,setting,value
"Cn1nc(C(F)(F)F)c(CS(=O)(=O)C2=NOC(C)(C)C2)c1OC(F)F [3-[[[5-(difluoromethoxy)-1-methyl-3-(trifluoromethyl)-1H-pyrazol-4-yl]methyl]sulfonyl]-4,5-dihydro-5,5-dimethylisoxazole]",dispersibility compared with amorphous Pyroxasulfone,[1],significantly higher dispersibility
same,storage stability compared with amorphous Pyroxasulfone,[2],significantly higher storage stability
same,tendency to aggregate during storage,[2]; summary of Table 5,significantly lower tendency to aggregate
